# Data taken from patent US9211313B2, “Methods and compound to inhibit Ca2+ permeable cation conductance” (priority 2011, dated 2015).
# Key:
# Assay type in all cases: cell-based
# neurite = assay: Neurite initiation and neurite length
# Description: The peptide GsMTx4 of the present invention can be prepared for pharmaceutical use by incorporation with a pharmaceutically acceptable carrier or diluent. The peptide can be formulated into tablets, capsules, caplets and the like. Suitable carriers for tablets include calcium carbonate, starch, lactose, talc, magnesium stearate and gum acacia. The peptide can also be formulated for oral, parenteral or intravenous administration in aqueous solutions, aqueous alcohol, glycol or oil solutions or emulsions. The peptide can also be formulated for inhaling by encapsulating to facilitate alveolar absorption as has been done for insulin (Inhale Therapeutic Systems, San Carlos, Calif., inhale.com). Pharmaceutical compositions suitable for such routes of administration are well known in the art. For example, suitable forms and compositions of pharmaceutical preparations can be found in Remington's Pharmaceutical Science, 1980, 15^thed. Mack Publishing Co., Easton, Pa. Thus, the peptide GsMTx4 can be administered orally, subcutaneously, parenterally, intravenously, intramuscularly or intranasally. The peptide may also be applied to medical devices that will come into contact blood. Both L and D enantiomers of GsMTx4's and its variants can be used for the present invention. We have previously shown that both L- and D-GsMTx4 block mechanosensitive channel (MSC) activity. Although, we have noted differences in the effects of these enantiomers, both forms are effective. For example, we have observed that the ability of the mirror image form (D-enantiomer) to inhibit mechanically activated ion channels is similar to the wild type peptide (L-form) (Suchyna et al 2004). […] Thus, both L and the D forms can be used in the present invention.
# [1] = test system: LPA-induced cation conductance in human SS red cells; assay: On-cell patch clamp of LPA-induced cation conductance; details: 1 μM in the pipette
# Description: On-cell patch clamp: Borosilicate pipettes (Corning 7052) pulled with a Narishige two stage puller or a Sutter P97 puller and fire-polished to resistances of 10-20 MΩ were front-filled and then backfilled. Symmetric bath and pipette solutions for studies of seal resistance stability during reversibility tests of the deoxygenation-activated conductance in SAD mouse red cells were (in mM) 140 NaCl, 4 KCl, 1 CaCl2, 1 MgCl2, 10 Na HEPES, pH 7.4. These conditions yielded tight seals in 13% of patch attempts on SAD cells. For study of deoxygenation-induced monovalent cation permeation in the absence of bath Ca^2+ and Mg^2+ recorded in SAD and Berkeley mouse cells and in human cells, symmetric bath and pipette solutions contained (in mM) 150 Na methanesulfonate, 10 Na EDTA, and 10 Na HEPES, pH 7.4. These conditions yielded tight seals in 16% of patch attempts on SAD mouse red cells, 26% of attempts on Berkeley mouse cells, and 30% of attempts on human SS cells. For study of Ca^2+ permeation in human SS cells, bath and pipette solutions contained (in mM) 100 CaCl2, 10 Na HEPES, pH 7.4. These conditions yielded tights seals on 44% of attempts. For all conditions tested in human red cells, 70% of tight seals were sustained through the solution change accompanying deoxygenation to allow recording of current activity.
# On-cell patch currents were recorded with the Axopatch 1-D amplifier (Axon Instruments/Molecular Devices, Sunnyvale, Calif.). Holding potential was −Vp=−50 mV (expressed as the negative of the pipette potential (e.g., equivalent to the intracellular potential with respect to the pipette). To determine current-voltage relationships (I-V curves) in Fetchex or Clampex (PCLAMP, Axon Instruments), the realtime control window in gap-free mode was used to record current traces of 10-30 sec duration at holding potentials ranging from −100 to +100 mV, in 25 mV increments. The bath reference electrode was a silver chloride wire with a 3 M KCl agar bridge. Data was filtered at 500 Hz, digitized at 2 kHz by Clampex, and analyzed offline by Fetchan and Pstat or by Clampfit subroutines of PCLAMP. Holding potentials in on-cell patch experiments were expressed as −Vp, the negative of the pipette potential.
# Deoxygenation-activated flickering cation conductance observed in human SS cells contrasted with the prolonged channel openings produced by 5 μM LPA (FIG. 10A). In SS cells, LPA increased NPo […], from 0.04±0.03 to 0.82±0.18 (n=8, p<0.001; Na methanesulfonate in bath and pipette, −Vp=−50 mV; FIG. 10B). LPA-induced cation conductance was 96% inhibited by 100 uM dipyridamole in the pipette, and 97% inhibited by 1 μM GsMTx-4 in the pipette (both n=4).
# [2] = test system: deoxygenation-activated Ca2+-permeable conductance in human SS cells; assay: On-cell patch clamp of deoxygenation-activated Ca2+-permeable conductance, CaCl2 in pipette; details: 1 μM in the pipette; -Vp=-25 mV
# Description: Blood cell preparation: Human SS and AA blood was obtained under IRB-approved protocols of Children's Hospital and Beth Israel Deaconess Medical Center. After buffy coat removal and 5 washes in standard human red cell wash solution containing (in mM) 150 choline Cl, 1 MgCl, and 10 Tris-MOPS, pH 7.4, red cells were resuspended in storage solution containing (in mM) 145 KCl, 15 NaCl, and 10 HEPES, pH 7.4, then kept at 4° C. until used. […]
# Mouse red cells allowed to settle on coverslips were superfused 15 min with bath solution containing (in mM) either 150 mM Na methanesulfonate, 10 Na EDTA, and 10 Na HEPES, pH 7.4; or 140 NaCl, 4 KCl, 1CaCl2, 1 MgCl2, 10 Na HEPES, pH 7.4. […] The resulting bath pO2 was 18 mm Hg as measured by oxygen electrode (WPI). […]
# On-cell patch clamp: Borosilicate pipettes (Corning 7052) pulled with a Narishige two stage puller or a Sutter P97 puller and fire-polished to resistances of 10-20 MΩ were front-filled and then backfilled. […] For study of deoxygenation-induced monovalent cation permeation in the absence of bath Ca^2+ and Mg^2+ recorded in SAD and Berkeley mouse cells and in human cells, symmetric bath and pipette solutions contained (in mM) 150 Na methanesulfonate, 10 Na EDTA, and 10 Na HEPES, pH 7.4. […]
# On-cell patch currents were recorded with the Axopatch 1-D amplifier (Axon Instruments/Molecular Devices, Sunnyvale, Calif.). […]
substance,measurement,setting,value
Grammastola spatulata mechanotoxin 4 (GCLEFWWKCNPNDDKCCRPKLKCSKLFKLCNFSF; listed as Grammastola spatulata) [GsMTx-4],effect on neurite length,neurite,no significant effect
same,neurite initiation,neurite,stimulate
same,effect on LPA-induced increase in NPo,[1],prevented
same,inhibition of LPA-induced cation conductance,"[1]; 5 μM LPA, n=4",97%
same,"effect on deoxygenation-induced increase in NPo, Ca2+ in the pipette",[2],prevented
